Data published in ChEMBL document CHEMBL1142877, “Synthesis and biological evaluation of 4-methylideneisoxazolidin-5-ones--a new class of highly cytotoxic alpha-methylidene-gamma-lactones” (Eur J Med Chem, 2007).
Values after ≈ are worked out from the molar mass of the structure shown. Active and inactive are the calls of the source. No cut-off for these calls is given here.

What was measured:
[1] = test system: Staphylococcus epidermidis; test: Growth inhibition of Staphylococcus epidermidis ATCC 12228 at 150 ug/mL; assay type: functional, organism-based
[2] = Cytotoxicity against adriamycin-resistant HL60/ADR cells expressing MRP1 after 72 hrs by dye exclusion assay; assay type: functional, cell-based; settings: Homo sapiens
[3] = test system: Staphylococcus aureus; test: Growth inhibition of Staphylococcus aureus ATCC 29213 at 300 ug/mL; assay type: functional, organism-based
[4] = test system: Staphylococcus aureus; test: Growth inhibition of Staphylococcus aureus ATCC 29213 at 150 ug/mL; assay type: functional, organism-based
[5] = test system: Staphylococcus epidermidis; test: Growth inhibition of Staphylococcus epidermidis ATCC 12228 at 300 ug/mL; assay type: functional, organism-based
[6] = test system: Enterococcus faecalis; test: Antimicrobial activity against Enterococcus faecalis ATCC 29212; assay type: functional
[7] = test system: Escherichia coli; test: Antimicrobial activity against Escherichia coli NCTC 8196 at 300 ug/mL; assay type: functional, organism-based
[8] = test system: Pseudomonas aeruginosa; test: Antimicrobial activity against Pseudomonas aeruginosa NCTC 6749; assay type: functional
[9] = test system: Candida albicans; test: Antimicrobial activity against Candida albicans ATCC 10231 at 37.5 ug/mL by MTT reduction assay; assay type: functional, organism-based
[10] = test system: HL-60; test: Cytotoxicity against HL60 cells after 72 hrs by dye exclusion assay; assay type: functional, cell-based; settings: Homo sapiens, HL-60, 72 h
[11] = test system: Escherichia coli; test: Antimicrobial activity against Escherichia coli NCTC 8196; assay type: functional

Row | Compound | Activity [1] | IC50 [2] | Activity [3] | Activity [4] | Activity [5] | MIC [6] | Activity [7] | MIC [8] | Activity [9] | IC50 [10] | MIC [11]
1 | C=C1C(=O)ON(C)C1c1ccc(C)cc1 (stereo not given) | Active | 6 µM | Active | Active | Active | ≥ 300 µg/mL | inactive | 300 µg/mL (≈ 1480 µM) | Active | – | –
2 | COc1cccc2c1C(=O)c1c(O)c3c(c(O)c1C2=O)C[C@@](O)(C(=O)CO)C[C@@H]3O[C@H]1C[C@H](N)[C@H](O)[C@H](C)O1 [DOXORUBICIN] | – | – | – | – | – | – | – | – | – | 0.013 µM | –
3 | C=C1C(=O)ON(C)C1C(C)CCC (stereo not given) | Active | 2.5 µM | Active | Active | Active | ≥ 300 µg/mL | – | 300 µg/mL (≈ 1640 µM) | Active | 4.1 µM | 75 µg/mL (≈ 409 µM)
